# Laboratory results published in patent US8470837B2, “MAPK/ERK kinase inhibitors” (Takeda Pharmaceutical Company Limted, priority 2006, dated 2013).
# Biological target: MEK1 (Homo sapiens, UniProt Q02750, DEL30-49/S218E/S222D)
# Experiment: MEK1 inhibition, fluorescence polarization assay with IMAP beads (ERK1 / FI-Erktide coupled)
# MEK1, sequence (Q02750 with tags, fused parts or gaps DEL30-49/S218E/S222D): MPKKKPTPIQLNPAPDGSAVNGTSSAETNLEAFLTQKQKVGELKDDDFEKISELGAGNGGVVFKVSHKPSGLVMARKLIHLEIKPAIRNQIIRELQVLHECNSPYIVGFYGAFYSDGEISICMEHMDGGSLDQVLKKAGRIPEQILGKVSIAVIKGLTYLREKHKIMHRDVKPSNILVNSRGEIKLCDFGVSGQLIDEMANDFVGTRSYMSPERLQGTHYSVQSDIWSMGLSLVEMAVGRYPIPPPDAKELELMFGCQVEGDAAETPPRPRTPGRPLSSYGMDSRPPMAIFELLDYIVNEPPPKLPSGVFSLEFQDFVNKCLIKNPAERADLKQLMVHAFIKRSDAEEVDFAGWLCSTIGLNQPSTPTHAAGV
row,Compound,IC50 [nM]
1,"COC(=O)Cn1cnc2c(c(Nc3ccc(I)cc3F)cc(=O)n2C)c1=O [Example 3, Methyl 2-(5-(2-fluoro-4-iodophenylamino)-8-methyl-4,7-dioxo-7,8-dihydropyrido[2,3-d]pyrimidin-3(4H)-yl)acetate]",≥ 16
2,"Cn1c(=O)c(Cl)c(Nc2ccc(I)cc2F)c2c(=O)n(C[C@H](O)CO)cnc21 [Example 7, (S)-6-Chloro-3-(2,3-dihydroxypropyl)-5-(2-fluoro-4-iodophenylamino)-8-methylpyrido[2,3-d]pyrimidine-4,7(3H,8H)-dione]",≤ 5
3,"Cc1c(Nc2ccc(Br)cc2F)c2c(=O)n(C[C@H](O)CO)cnc2n(C)c1=O [Example 9, (S)-5-(4-Bromo-2-fluorophenylamino)-3-(2,3-dihydroxypropyl)-6,8-dimethylpyrido[2,3-d]pyrimidine-4,7(3H,8H)-dione]",≥ 16
4,"Cc1c(Nc2ccc(Br)cc2F)c2c(=O)n(C[C@@H](O)CO)cnc2n(C)c1=O [Example 10, (R)-5-(4-Bromo-2-fluorophenylamino)-3-(2,3-dihydroxypropyl)-6,8-dimethylpyrido[2,3-d]pyrimidine-4,7(3H,8H)-dione]",≥ 16
5,"Cc1c(Nc2ccc(Br)cc2F)c2c(=O)n(CCO)cnc2n(C)c1=O [Example 11, 5-(4-Bromo-2-fluorophenylamino)-3-(2-hydroxyethyl)-6,8-dimethylpyrido[2,3-d]pyrimidine-4,7(3H,8H)-dione]",≥ 16
6,"Cc1c(Nc2ccc(I)cc2F)c2c(=O)n(CCO)cnc2n(C)c1=O [Example 14, 5-(2-Fluoro-4-iodophenylamino)-3-(2-hydroxyethyl)-6,8-dimethylpyrido[2,3-d]pyrimidine-4,7(3H,8H)-dione]",≤ 5
7,"Cc1c(Nc2ccccc2F)c2c(=O)n(CCO)cnc2n(C)c1=O [Example 15, 5-(2-Fluorophenylamino)-3-(2-hydroxyethyl)-6,8-dimethylpyrido[2,3-d]pyrimidine-4,7(3H,8H)-dione]",≥ 16
8,"C#Cc1ccc(Nc2c(C)c(=O)n(C)c3ncn(C[C@@H](O)CO)c(=O)c23)c(F)c1 [Example 16, (R)-3-(2,3-Dihydroxypropyl)-5-(4-ethynyl-2-fluorophenylamino)-6,8-dimethylpyrido[2,3-d]pyrimidine-4,7(3H,8H)-dione]",5 to 15
9,"Cn1c(=O)c(F)c(Nc2ccc(I)cc2F)c2c(=O)n(C[C@@H](O)CO)cnc21 [Example 18, (R)-3-(2,3-Dihydroxypropyl)-6-fluoro-5-(2-fluoro-4-iodophenylamino)-8-methylpyrido[2,3-d]pyrimidine-4,7(3H,8H)-dione]",≤ 5
10,"Cn1c(=O)c(F)c(Nc2ccc(I)cc2F)c2c(=O)n(C[C@H](O)CO)cnc21 [Example 19, (S)-3-(2,3-Dihydroxypropyl)-6-fluoro-5-(2-fluoro-4-iodophenylamino)-8-methylpyrido[2,3-d]pyrimidine-4,7(3H,8H)-dione]",≤ 5
11,"C#Cc1ccc(Nc2c(F)c(=O)n(C)c3ncn(C[C@H](O)CO)c(=O)c23)c(F)c1 [Example 21, (S)-3-(2,3-Dihydroxypropyl)-5-(4-ethynyl-2-fluorophenylamino)-6-fluoro-8-methylpyrido[2,3-d]pyrimidine-4,7(3H,8H)-dione]",5 to 15
12,"C#Cc1ccc(Nc2c(F)c(=O)n(C)c3ncn(C[C@@H](O)CO)c(=O)c23)c(F)c1 [Example 22, (R)-3-(2,3-dihydroxypropyl)-5-(4-ethynyl-2-fluorophenylamino)-6-fluoro-8-methylpyrido[2,3-d]pyrimidine-4,7(3H,8H)-dione]",≤ 5
13,"Cn1c(=O)c(F)c(Nc2ccc(NS(C)(=O)=O)cc2F)c2c(=O)n(C[C@@H](O)CO)cnc21 [Example 23, (R)—N-(4-(3-(2,3-Dihydroxypropyl)-6-fluoro-8-methyl-4,7-dioxo-3,4,7,8-tetrahydropyrido[2,3-d]pyrimidin-5-ylamino)-3-fluorophenyl)methanesulfonamide]",≥ 16
14,"Cn1c(=O)c(F)c(Nc2ccc(I)cc2F)c2c(=O)n(C(CO)CO)cnc21 [Example 25, 3-(1,3-Dihydroxypropan-2-yl)-6-fluoro-5-(2-fluoro-4-iodophenylamino)-8-methylpyrido[2,3-d]pyrimidine-4,7(3H,8H)-dione]",≤ 5
15,"Cn1c(=O)c(F)c(Nc2ccc(I)cc2F)c2c(=O)n(OC[C@H](O)CO)cnc21 [Example 28, (R)-3-(2,3-Dihydroxypropoxy)-6-fluoro-5-(2-fluoro-4-iodophenylamino)-8-methylpyrido[2,3-d]pyrimidine-4,7(3H,8H)-dione]",≤ 5
16,"Cn1c(=O)c(Cl)c(Nc2ccc(Br)cc2F)c2c(=O)n(C[C@@H](O)CO)cnc21 [Example 29, (R)-5-(4-Bromo-2-fluorophenylamino)-6-chloro-3-(2,3-dihydroxypropyl)-8-methylpyrido[2,3-d]pyrimidine-4,7(3H,8H)-dione]",5 to 15
17,"Cn1c(=O)c(Cl)c(Nc2ccc(I)cc2F)c2c(=O)n(CCO)cnc21 [Example 30, 6-Chloro-5-(2-fluoro-4-iodophenylamino)-3-(2-hydroxyethyl)-8-methylpyrido[2,3-d]pyrimidine-4,7(3H,8H)-dione]",≤ 5
18,"Cn1c(=O)cc(Nc2ccc(I)cc2F)c2c(=O)n(CCCO)cnc21 [Example 31, 5-(2-Fluoro-4-iodophenylamino)-3-(3-hydroxypropyl)-8-methylpyrido[2,3-d]pyrimidine-4,7(3H,8H)-dione]",≤ 5
19,"Cn1c(=O)c(Cl)c(Nc2ccc(I)cc2F)c2c(=O)n(CCCO)cnc21 [Example 32, 6-Chloro-5-(2-fluoro-4-iodophenylamino)-3-(3-hydroxypropyl)-8-methylpyrido[2,3-d]pyrimidine-4,7(3H,8H)-dione]",≤ 5
20,"Cn1c(=O)cc(Nc2ccc(Br)cc2F)c2c(=O)n(CCCO)cnc21 [Example 33, 5-(4-Bromo-2-fluorophenylamino)-3-(3-hydroxypropyl)-8-methylpyrido[2,3-d]pyrimidine-4,7(3H,8H)-dione]",≥ 16
21,"Cn1c(=O)c(Cl)c(Nc2ccc(Br)cc2F)c2c(=O)n(CCCO)cnc21 [Example 34, 5-(4-Bromo-2-fluorophenylamino)-6-chloro-3-(3-hydroxypropyl)-8-methylpyrido[2,3-d]pyrimidine-4,7(3H,8H)-dione]",5 to 15
22,"Cn1c(=O)cc(Nc2ccc(Br)cc2Cl)c2c(=O)n(CCCO)cnc21 [Example 35, 5-(4-Bromo-2-chlorophenylamino)-3-(3-hydroxypropyl)-8-methylpyrido[2,3-d]pyrimidine-4,7(3H,8H)-dione]",≥ 16
23,"Cn1c(=O)c(Cl)c(Nc2ccc(Br)cc2Cl)c2c(=O)n(CCCO)cnc21 [Example 36, 5-(4-Bromo-2-chlorophenylamino)-6-chloro-3-(3-hydroxypropyl)-8-methylpyrido[2,3-d]pyrimidine-4,7(3H,8H)-dione]",≥ 16
24,"CN(C)CCn1cnc2c(c(Nc3ccc(I)cc3F)cc(=O)n2C)c1=O [Example 37, 3-(2-(Dimethylamino)ethyl)-5-(2-fluoro-4-iodophenylamino)-8-methylpyrido[2,3-d]pyrimidine-4,7(3H,8H)-dione]",≥ 16
25,"CC(O)Cn1cnc2c(c(Nc3ccc(I)cc3F)cc(=O)n2C)c1=O (centres unmarked) [Example 38, 5-(2-Fluoro-4-iodophenylamino)-3-(2-hydroxypropyl)-8-methylpyrido[2,3-d]pyrimidine-4,7(3H,8H)-dione]",≥ 16
26,"CC(O)Cn1cnc2c(c(Nc3ccc(I)cc3F)c(Cl)c(=O)n2C)c1=O (centres unmarked) [Example 40, 6-Chloro-5-(2-fluoro-4-iodophenylamino)-3-(2-hydroxypropyl)-8-methylpyrido[2,3-d]pyrimidine-4,7(3H,8H)-dione]",5 to 15
27,"Cn1c(=O)cc(Nc2ccc(I)cc2F)c2c(=O)n(Cc3ccccc3)cnc21 [Example 42, 3-Benzyl-5-(2-fluoro-4-iodophenylamino)-8-methylpyrido[2,3-d]pyrimidine-4,7(3H,8H)-dione]",≥ 16
28,"Cc1c(Nc2ccc(I)cc2F)c2c(=O)n(C(CO)CO)cnc2n(C)c1=O [Example 43, 3-(1,3-Dihydroxypropan-2-yl)-5-(2-fluoro-4-iodophenylamino)-6,8-dimethylpyrido[2,3-d]pyrimidine-4,7(3H,8H)-dione]",5 to 15
29,"C#Cc1ccc(Nc2c(C)c(=O)n(C)c3ncn(C[C@H](O)CO)c(=O)c23)c(F)c1 [Example 44, (S)-3-(2,3-Dihydroxypropyl)-5-(4-ethynyl-2-fluorophenylamino)-6,8-dimethylpyrido[2,3-d]pyrimidine-4,7(3H,8H)-dione]",5 to 15
